Measurements taken from paper PMC10525797, “Streptomyces rugosispiralis sp. nov., a Novel Actinobacterium Isolated from Peat Swamp Forest Soil That Produces Ansamycin Derivatives and Nocardamines” (Antibiotics, 2023).
In brackets after ≈: the same amount, converted by molar mass.

Tests used:
[1] = test system: C. albicans; set-up: method as in PMID 21376551; details: cited from earlier work
[2] = test system: Mycobacterium tuberculosis strain H37Ra; assay: microbe, parasite or virus in culture; format: cell-based; details: for MIC: Mycobacterium tuberculosis, H37RA, read-out: Anti-M. tuberculosis MIC
[3] = test system: V. alginolyticus; set-up: method as in PMID 21376551; details: cited from earlier work
[4] = test system: T-47D; set-up: method as in PMID 21376551; details: cited from earlier work
[5] = test system: B. subtilis; set-up: method as in PMID 21376551; details: cited from earlier work
[6] = test system: KB (oral human epidermoid carcinoma, ATCC CCL-17); details: KB cells; inactive = at the final concentration of 50 μg/mL
[7] = test system: PRMI-7951; set-up: method as in PMID 21376551; details: cited from earlier work
[8] = test system: NCI-H187 (human small-cell lung cancer, ATCC CRL-5804); details: NCI-H187 cells; inactive = at the final concentration of 50 μg/mL
[9] = in vitro; details: African green monkey
[10] = test system: E. faecium; set-up: method as in PMID 21376551; details: cited from earlier work
[11] = test system: tested microorganisms used in this study; assay: Antimicrobial activity test, tested microorganisms of this study; format: cell-based; details: at a concentration of 50 μg/mL
[12] = test system: Plasmodium falciparum (K-1, multi-drug resistant strain); assay: microbe, parasite or virus in culture; format: cell-based; details: for Anti-P. falciparum IC50: K-1 multi-drug resistant strain, inactive = at the final concentration of 50 μg/mL; for IC50: Plasmodium falciparum, read-out: Anti-P. falciparum IC50
[13] = set-up: method as in PMID 15844966; details: final concentration of up to 200 μg/mL; cited from earlier work
[14] = test system: SK-Mel-5; set-up: method as in PMID 21376551; details: cited from earlier work
[15] = test system: Bacillus cereus; assay: Antibacterial resazurin microplate assay (REMA), anti-B. cereus; format: cell-based; details: inactive = at the final concentration of 50 μg/mL
[16] = test system: MCF-7 (human breast cancer, ATCC HTC-22); details: MCF-7 cells; inactive = at the final concentration of 50 μg/mL
[17] = test system: SK-Mel-28; set-up: method as in PMID 21376551; details: cited from earlier work
[18] = target: Hsp90 ATPase; set-up: method as in PMID 23124337; details: isolated from Streptomyces hygroscopicus JCM4427; read-out: Hsp90 ATPase inhibition IC50; cited from earlier work
[19] = in vitro; details: human
[20] = test system: Plasmodium berghei; set-up: method as in PMID 5459626; details: cited from earlier work
[21] = test system: HPV-18-positive HeLa cells; set-up: method as in PMID 28862674; details: cervical cancer cell line; cited from earlier work
[22] = test system: Syphacia oblevata; set-up: method as in PMID 5459626; details: cited from earlier work
[23] = test system: Setosphaeria turcica; set-up: method as in PMID 28862674; details: plant pathogen; cited from earlier work
[24] = test system: Vero cells (African green monkey kidney fibroblasts, ATCC CCL-81); details: inactive = at the final concentration of 50 μg/mL
[25] = in vitro; details: human; remark: listed apart in the source
[26] = test system: human histiocytic lymphoma U-937 cell line; set-up: method as in PMID 11213294; details: cited from earlier work
[27] = test system: oncostatin M signaling; details: cell-based; cited from earlier work

O=C1CCC(=O)N(O)CCCCCNC(=O)CCC(=O)N(O)CCCCCNC(=O)CCC(=O)N(O)CCCCCN1 [(5), nocardamine]
antimicrobial activity against C. albicans [1]: no activity
Anti-M. tuberculosis MIC [2]: inactive
antimicrobial activity against V. alginolyticus [3]: no activity
cell proliferation of T-47D [4]: did not inhibit cell proliferation
colony formation of T-47D [4]: did inhibit their colony formation
antimicrobial activity against B. subtilis [5]: weak antimicrobial activity
Cytotoxicity IC50 KB [6]: inactive
cell proliferation of PRMI-7951 [7]: did not inhibit cell proliferation
colony formation of PRMI-7951 [7]: did inhibit their colony formation
Cytotoxicity IC50 NCI-H187 [8]: inactive
IC50 [9]: 16.6 µg/mL (≈ 27.6 µM)
antimicrobial activity against E. faecium [10]: weak antimicrobial activity
antimicrobial activity against tested microorganisms [11]: inactive
Anti-P. falciparum IC50 [12]: inactive
antimicrobial activity [13]: no antimicrobial activity
cell proliferation of SK-Mel-5 [14]: did not inhibit cell proliferation
colony formation of SK-Mel-5 [14]: did inhibit their colony formation
Anti-B. cereus MIC [15]: inactive
Cytotoxicity IC50 MCF-7 [16]: inactive
cell proliferation of SK-Mel-28 [17]: did not inhibit cell proliferation
colony formation of SK-Mel-28 [17]: did inhibit their colony formation

OC(c1cc(C(F)(F)F)nc2c(C(F)(F)F)cccc12)C1CCCCN1 (stereo not drawn) [Mefloquine, reference compound]
IC50 [12]: 0.024 µg/mL (≈ 0.0634 µM)

CO[C@H]1C[C@H](C)Cc2cc(O)cc(c2)NC(=O)/C(C)=C/CC[C@H](OC)[C@@H](OC(N)=O)/C(C)=C/[C@H](C)[C@H]1O [(4), 17-demethoxyreblastatin]
IC50 [18]: 1820 nM
Anti-M. tuberculosis MIC [2]: inactive
Cytotoxicity IC50 KB [6]: inactive
IC50 [9]: 13.5 µg/mL (≈ 26 µM)
Anti-P. falciparum IC50 [12]: inactive
IC50 [19]: 1.33 µg/mL (≈ 2.56 µM)
Anti-B. cereus MIC [15]: inactive
Cytotoxicity IC50 MCF-7 [16]: inactive

COC1=C2C[C@@H](C)C[C@H](OC)[C@H](O)[C@@H](C)/C=C(\C)[C@H](OC(N)=O)[C@@H](OC)/C=C\C=C(/C)C(=O)NC(=CC1=O)C2=O [(1), geldanamycin]
in vivo anti-parasitic activity against Plasmodium berghei [20]: not against Plasmodium berghei
Anti-M. tuberculosis MIC [2]: inactive
growth of HPV-18-positive HeLa cells [21]: inhibited the growth
in vivo anti-parasitic activity against Syphacia oblevata [22]: in vivo anti-parasitic activity
IC50 [9]: 0.094 µg/mL (≈ 0.168 µM)
Anti-P. falciparum IC50 [12]: inactive
antifungal activity against Setosphaeria turcica [23]: antifungal activity
Anti-B. cereus MIC [15]: inactive

CN[C@H](CC(C)C)C(=O)N[C@H]1C(=O)N[C@@H](CC(N)=O)C(=O)N[C@H]2C(=O)N[C@H]3C(=O)N[C@H](C(=O)N[C@H](C(=O)O)c4cc(O)cc(O)c4-c4cc3ccc4O)[C@H](O)c3ccc(c(Cl)c3)Oc3cc2cc(c3O[C@@H]2O[C@H](CO)[C@@H](O)[C@H](O)[C@H]2O[C@H]2C[C@](C)(N)[C@H](O)[C@H](C)O2)Oc2ccc(cc2Cl)[C@H]1O [Vancomycin, reference compound]
MIC ([15]; Bacillus cereus): 2 µg/mL (≈ 1.38 µM)

CO[C@H]1/C=C/O[C@@]2(C)Oc3c(C)c(O)c4c(O)c(c(/C=N/N5CCN(C)CC5)c(O)c4c3C2=O)NC(=O)/C(C)=C\C=C\[C@H](C)[C@H](O)[C@@H](C)[C@@H](O)[C@@H](C)[C@H](OC(C)=O)[C@@H]1C [Rifampicin, reference compound]
MIC [2]: 0.013 µg/mL (≈ 0.0158 µM)

CO[C@H]1/C=C\C=C(/C)C(=O)NC2=CC(=O)C(O)=C(C[C@@H](C)C[C@H](OC)[C@H](O)[C@@H](C)/C=C(\C)[C@@H]1OC(N)=O)C2=O [(2), 17-O-demethylgeldanamycin]
Anti-M. tuberculosis MIC [2]: inactive
Cytotoxicity IC50 KB [6]: inactive
IC50 [9]: 6.43 µg/mL (≈ 11.8 µM)
Anti-P. falciparum IC50 [12]: inactive
IC50 [19]: 4.25 µg/mL (≈ 7.78 µM)
Anti-B. cereus MIC [15]: inactive
Cytotoxicity IC50 MCF-7 [16]: inactive

CC1COc2c(N3CCN(C)CC3)c(F)cc3c(=O)c(C(=O)O)cn1c23 (stereo not drawn) [Ofloxacin, reference compound]
MIC [2]: 0.391 µg/mL (≈ 1.08 µM)

CC[C@@H](CO)NCCN[C@@H](CC)CO [Ethambutol, reference compound]
MIC [2]: 0.938 µg/mL (≈ 4.59 µM)

O=C1CCC(=O)NCCCCCN(O)C(=O)CCC(=O)NCCCCCN(O)C(=O)CCC(=O)NCCCCCN1 [(6), dehydroxynocardamine]
Anti-M. tuberculosis MIC [2]: inactive
Cytotoxicity IC50 KB [6]: inactive
Cytotoxicity IC50 Vero [24]: inactive
antimicrobial activity against tested microorganisms [11]: inactive
Anti-P. falciparum IC50 [12]: inactive
antimicrobial activity [13]: no antimicrobial activity
IC50 [19]: 14 µg/mL (≈ 23.9 µM)
Anti-B. cereus MIC [15]: inactive
Cytotoxicity IC50 MCF-7 [16]: inactive

Cc1c2ccncc2c(C)c2c1[nH]c1ccccc12 [Ellipticine, reference compound]
IC50 [9]: 1.58 µg/mL (≈ 6.41 µM)

NNC(=O)c1ccncc1 [Isoniazid, reference compound]
MIC [2]: 0.047 µg/mL (≈ 0.343 µM)

CC/C(=C(\c1ccccc1)c1ccc(OCCN(C)C)cc1)c1ccccc1 [Tamoxifen, reference compound]
IC50 [25]: 6.96 µg/mL (≈ 18.7 µM)

C[C@H]1[C@@H](O)O[C@@H]2O[C@@]3(C)CC[C@H]4[C@H](C)CC[C@@H]1[C@@]24OO3 [Dihydroartemisinine, reference compound]
IC50 [12]: 0.000702 µg/mL (≈ 0.00247 µM)

COc1c(O)cc2cc1C[C@@H](C)C[C@H](OC)[C@H](O)[C@@H](C)/C=C(\C)[C@H](OC(N)=O)[C@@H](OC)CC/C=C(\C)C(=O)N2 [(3), reblastatin]
IC50 [18]: 320 nM
Anti-M. tuberculosis MIC [2]: inactive
IC50 [9]: 7.75 µg/mL (≈ 14.1 µM)
inhibition of proliferation of U-937 IC50 [26]: 0.43 µg/mL
Anti-P. falciparum IC50 [12]: inactive
Anti-B. cereus MIC [15]: inactive
IC50 [27]: 160 nM
